Measurements from US9963445B2, “Chemical compounds” (SYNGENTA PARTICIPATIONS AG, priority 2013, dated 2018).

Legend:
Assay type in all cases: in vivo
Echinochloa crus-galli [1] = assay: Post-emergence herbicidal activity, glasshouse pot test; design: key: 0 = no damage to plant, 5 = total damage to plant; settings: Application post-emergence, rate 1000 g/ha, evaluated after 13 days
Procedure, shortened: (§1)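 Seeds sown in standard soil in pots, grown 8 days in glasshouse (24/16 °C day/night, 14 h light, 65% humidity), then sprayed with aqueous solution from active ingredient formulated in acetone/water (50:50) with 0.5% Tween 20. Plants regrown under same conditions, watered twice daily; damage scored after 13 days (0 none–5 total).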

Amaranthus retroflexus [2] = assay: as above; design: key: 0 = no damage to plant, 5 = total damage to plant; settings: Application post-emergence, rate 1000 g/ha, evaluated after 13 days
Procedure, shortened: as §1

Setaria faberi [3] = assay: as above; design: key: 0 = no damage to plant, 5 = total damage to plant; settings: Application post-emergence, rate 1000 g/ha, evaluated after 13 days
Procedure, shortened: as §1

Abutilon theophrasti [4] = assay: as above; design: key: 0 = no damage to plant, 5 = total damage to plant; settings: Application post-emergence, rate 1000 g/ha, evaluated after 13 days
Procedure, shortened: as §1

Alopecurus myosuroides [5] = assay: as above; design: key: 0 = no damage to plant, 5 = total damage to plant; settings: Application post-emergence, rate 1000 g/ha, evaluated after 13 days
Procedure, shortened: as §1

zea mays [6] = assay: as above; design: key: 0 = no damage to plant, 5 = total damage to plant; settings: Application post-emergence, rate 1000 g/ha, evaluated after 13 days
Procedure, shortened: as §1

Echinochloa crus-galli [7] = assay: Pre-emergence herbicidal activity, glasshouse pot test; settings: pre-emergence spray, rate 1000 g/ha, evaluated after 13 days, scale 0-5
Procedure, shortened: (§2)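 Damage was rated at 13 days from 0 (none) to 5 (total), in a glasshouse kept at 24/16 °C, 14 h light and 65% humidity with watering twice daily. The aqueous spray of active ingredient in 50:50 acetone/water plus 0.5% Tween 20 was applied to soil one day post-sowing, before emergence.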

Amaranthus retroflexus [8] = assay: as above; settings: pre-emergence spray, rate 1000 g/ha, evaluated after 13 days, scale 0-5
Procedure, shortened: as §2

Setaria faberi [9] = assay: as above; settings: pre-emergence spray, rate 1000 g/ha, evaluated after 13 days, scale 0-5
Procedure, shortened: as §2

Abutilon theophrasti [10] = assay: as above; settings: pre-emergence spray, rate 1000 g/ha, evaluated after 13 days, scale 0-5
Procedure, shortened: as §2

Alopecurus myosuroides [11] = assay: as above; settings: pre-emergence spray, rate 1000 g/ha, evaluated after 13 days, scale 0-5
Procedure, shortened: as §2

zea mays [12] = assay: as above; settings: pre-emergence spray, rate 1000 g/ha, evaluated after 13 days, scale 0-5
Procedure, shortened: as §2

| SMILES | ECHCG herbicidal damage score (Echinochloa crus-galli [1]) | AMARE herbicidal damage score (Amaranthus retroflexus [2]) | SETFA herbicidal damage score (Setaria faberi [3]) | ABUTH herbicidal damage score (Abutilon theophrasti [4]) | ALOMY herbicidal damage score (Alopecurus myosuroides [5]) | ZEAMX herbicidal damage score (zea mays [6]) | ECHCG damage score, application pre-emergence (Echinochloa crus-galli [7]) | AMARE damage score, application pre-emergence (Amaranthus retroflexus [8]) | SETFA damage score, application pre-emergence (Setaria faberi [9]) | ABUTH damage score, application pre-emergence (Abutilon theophrasti [10]) | ALOMY damage score, application pre-emergence (Alopecurus myosuroides [11]) | ZEAMX damage score, application pre-emergence (zea mays [12]) |
| --- | --- | --- | --- | --- | --- | --- | --- | --- | --- | --- | --- | --- |
| CC1=C(Cl)C(=O)N(c2cc(C(C)F)ccn2)C1O (stereo not drawn) [AF40] | 5 | 5 | 4 | 5 | 3 | 5 | 4 | 5 | 5 | 5 | 2 | 2 |
| CC1=C(Cl)C(=O)N(c2cc(C(C)(C)F)ccn2)C1O (stereo not drawn) [AF31] | 5 | 5 | 5 | 5 | 5 | 5 | 4 | 5 | 5 | 5 | 3 | 2 |
| COC1=C(C)C(O)N(c2cc(C(F)(F)F)c(OC)cn2)C1=O (stereo not drawn) [AI15] | 5 | 5 | 5 | 5 | 5 | 4 | 4 | 5 | 5 | 2 | 4 | 3 |
| COC1=C(C)C(O)N(c2cc(C(F)(F)F)c(-c3cncnc3)cn2)C1=O (stereo not drawn) [AI13] | 5 | 5 | 5 | 5 | 5 | 4 | 3 | 4 | 2 | 2 | 3 | 3 |
| CC1=C(Cl)C(=O)N(c2cc(C(C)C)c(C(=O)NC(C)(C)C)cn2)C1O (stereo not drawn) [AF103] | 5 | 5 | 5 | 5 | 4 | 3 | 4 | 5 | 4 | 5 | 4 | 3 |
| CC1=C(Cl)C(=O)N(c2cc(C(F)(F)F)c(-c3nn(C)c4ccccc34)cn2)C1O (stereo not drawn) [AF105] | 2 | 5 | 4 | 5 | 3 | 0 | 0 | 0 | 0 | 0 | 0 | 0 |
| COC1=C(C)C(O)N(c2cc(C)c(C#N)nn2)C1=O (stereo not drawn) [BI5] | 0 | 0 | 0 | 0 | 0 | 0 | 0 | 0 | 0 | 0 | 0 | 0 |
| CC1=C(Cl)C(=O)N(c2cc(OC(F)(F)F)ccn2)C1O (stereo not drawn) [AF74] | 5 | 5 | 5 | 5 | 4 | 2 | 4 | 5 | 4 | 2 | 3 | 2 |
| CC1=C(Cl)C(=O)N(c2cc([S+](C)[O-])ccn2)C1O (stereo not drawn) [AF51] | 3 | 0 | 3 | 4 | 3 | 0 | 0 | 0 | 0 | 0 | 0 | 0 |
| CCC1=C(Cl)C(=O)N(c2cc(C(F)(F)F)ccn2)C1O (stereo not drawn) [AF84, 4-chloro-3-ethyl-2-hydroxy-1-[4-(trifluoromethyl)-2-pyridyl]-2H-pyrrol-5-one] | 5 | 4 | 5 | 5 | 5 | 3 | 5 | 5 | 2 | 2 | 3 | 0 |
